Data taken from US20230339891A1, “URACIL DERIVATIVES AS MER-AXL INHIBITORS” (BRISTOL-MYERS SQUIBB COMPANY, priority 2018, published 2023).

Columns and labels:
HIS-AXL 473-End = HIS-AXL 473-End (Homo sapiens (Human), UniProt P30530); experiment: AXL kinase homogeneous time resolved fluorescence (HTRF) binding assay; conditions: 1 nM kinase, fluorescein-labeled kinase tracer at Kd, 60 minutes at room temperature
Description: (§1) MERTK, AXL, TYRO3 Kinase Homogeneous Time Resolved Fluorescence (HTRF) Assay
(§2) Assays were performed in black, flat-bottom, 1536-well plates. The reactions were incubated at room temperature for 60 minutes, following which the HTRF signals, ratio of fluorescence intensities at emission wavelengths for fluorescein acceptor (520 nm) and terbium donor (495 nm), the 520/495 ratio, were measured on the Envision Plate reader. Inhibition data were calculated from the 520/495 ratio generated by the no protein control reactions for 100% inhibition and vehicle-only reactions for 0% inhibition, and dose response curves generated to determine the concentration required for inhibiting 50% of the HTRF signal (IC50). Compounds were dissolved at 10 mM in dimethylsulfoxide (DMSO) and evaluated at eleven concentrations.

GST-MERTK 578-872 = GST-MERTK 578-872 (Homo sapiens (Human), UniProt Q12866); experiment: MERTK kinase homogeneous time resolved fluorescence (HTRF) binding assay; conditions: 1 nM kinase, fluorescein-labeled kinase tracer at Kd, 60 minutes at room temperature; read-out: Mer HTRF IC50
Chain of GST-MERTK 578-872 (Q12866 578-872): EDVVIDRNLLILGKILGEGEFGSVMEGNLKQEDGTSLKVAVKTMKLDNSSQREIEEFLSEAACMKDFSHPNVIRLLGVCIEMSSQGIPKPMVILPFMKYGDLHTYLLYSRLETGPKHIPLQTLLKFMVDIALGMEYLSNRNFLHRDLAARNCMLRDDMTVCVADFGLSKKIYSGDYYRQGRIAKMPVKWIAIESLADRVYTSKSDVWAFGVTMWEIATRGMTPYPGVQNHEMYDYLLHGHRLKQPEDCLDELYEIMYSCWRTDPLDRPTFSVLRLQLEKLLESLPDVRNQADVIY
Description: as §1, §2

Chain of HIS-AXL 473-End (P30530 473-894): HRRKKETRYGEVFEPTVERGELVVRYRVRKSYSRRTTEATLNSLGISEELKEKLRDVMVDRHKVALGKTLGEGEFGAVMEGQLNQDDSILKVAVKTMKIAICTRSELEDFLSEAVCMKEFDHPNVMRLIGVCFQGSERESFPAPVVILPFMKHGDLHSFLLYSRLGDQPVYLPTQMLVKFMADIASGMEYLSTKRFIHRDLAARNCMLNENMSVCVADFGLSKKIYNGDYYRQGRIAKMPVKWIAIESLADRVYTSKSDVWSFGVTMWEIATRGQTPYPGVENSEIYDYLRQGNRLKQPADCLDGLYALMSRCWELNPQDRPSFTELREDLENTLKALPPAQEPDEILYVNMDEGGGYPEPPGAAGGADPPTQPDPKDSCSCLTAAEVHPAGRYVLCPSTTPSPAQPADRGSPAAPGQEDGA

| IC50 (HIS-AXL 473-End) | IC50 (GST-MERTK 578-872) | Compound |
| --- | --- | --- |
| 0.8 nM | 4.1 nM | CS(=O)(=O)C1CCN(c2nccc(Nc3cc(Oc4ccc(NC(=O)c5cn(C6CC6)c(=O)n(-c6ccc(F)cc6)c5=O)cc4F)ccn3)n2)CC1 [Example 112, 1-cyclopropyl-N-{3-fluoro-4-[(2-{[2-(4-methanesulfonylpipedidin-1-yl)pyrimidin-4-yl]amino}pyridin-4-yl)oxy]phenyl}-3-(4-fluorophenyl)-2,4-dioxo-1,2,3,4-tetrahydropyrimidine-5-carboxamide] |
| 0.7 nM | 2.9 nM | CC(C)n1cc(C(=O)Nc2ccc(Oc3ccnc(Nc4ccc(C(=O)NS(=O)(=O)C(C)C)cn4)c3)c(F)c2)c(=O)n(-c2ccc(F)cc2)c1=O [Example 96] |
| 8.9 nM | 49 nM | CC(C)n1cc(C(=O)Nc2ccc(Oc3ccnc(Nc4cc(N5CCOCC5)ccn4)c3)c(F)c2)c(=O)n(-c2ccc(F)cc2)c1=O [Example 22] |
| 36 nM | 22 nM | CC(C)n1cc(C(=O)Nc2ccc(Oc3ccnc(Nc4ccc(S(=O)(=O)N(C)C)c(N(C)C)n4)c3)c(F)c2)c(=O)n(-c2ccc(F)cc2)c1=O [Example 98, N-{4-[(2-{[6-(dimethylamino)-N,N-(dimethylsulfamoyl)pyridin-2-yl]amino}pyridin-4-yl)oxy]-3-fluorophenyl}-3-(4-fluorophenyl)-2,4-dioxo-1-(propan-2-yl)-1,2,3,4-tetrahydropyrimidine-5-carboxamide] |
| 0.7 nM | 0.6 nM | CC(C)n1cc(C(=O)Nc2ccc(Oc3ccnc(Nc4ccnc(N5CCCC5)n4)c3)c(F)c2)c(=O)n(-c2ccc(F)cc2)c1=O [Example 103, N-{3-fluoro-4-[(2-{[2-(pyrrolidin-1-yl)pyrimidin-4-yl]amino}pyridin-4-yl)oxy]phenyl}-3-(4-fluorophenyl)-2,4-dioxo-1-(propan-2-yl)-1,2,3,4-tetrahydropyrimidine-5-carboxamide] |
| 77 nM | 11 nM | COC(=O)N1CCN(c2nc(Nc3cc(Oc4ccc(NC(=O)c5cn(C(C)C)c(=O)n(-c6ccc(F)cc6)c5=O)cc4F)ccn3)ccc2C(F)(F)F)CC1 [Example 139] |
| 41 nM | 810 nM | Cc1cnc(Nc2ccnc(N3CCC(S(C)(=O)=O)CC3)n2)cc1Oc1ccc(NC(=O)c2cn(C(C)C)c(=O)n(-c3ccccc3)c2=O)cc1 [Example 115, N-{4-[(2-{[2-(4-methanesulfonylpiperidin-1-yl)pyrimidin-4-yl]amino}-5-methylpyridin-4-yl)oxy]phenyl}-2,4-dioxo-3-phenyl-1-(propan-2-yl)-1,2,3,4-tetrahydropyrimidine-5-carboxamide] |
| 0.3 nM | 1 nM | CC(C)n1cc(C(=O)Nc2ccc(Oc3ccnc(Nc4ccc(C(=O)N(C)C)c(N5CCN(S(C)(=O)=O)CC5)n4)c3)c(F)c2)c(=O)n(-c2ccc(F)cc2)c1=O [Example 97, N-{4-[(2-{[5-(Dimethylcarbamoyl)-6-(4-methanesulfonylpiperazin-1-yl)pyridin-2-yl]amino}pyridin-4-yl)oxy]-3-fluorophenyl}-3-(4-fluorophenyl)-2,4-dioxo-1-(propan-2-yl)-1,2,3,4-tetrahydropyrimidine-5-carboxamide] |
| 4.4 nM | 6.6 nM | CC(C)n1cc(C(=O)Nc2ccc(Oc3ccnc(Nc4ccc(N5CCC(NC(=O)OC(C)(C)C)C5=O)cn4)c3)c(F)c2)c(=O)n(-c2ccc(F)cc2)c1=O (centres unmarked) [Example 89] |
| 55 nM | 228 nM | CC(C)n1cc(C(=O)Nc2ccc(Oc3ccnc(Nc4ncc(C(F)(F)F)cc4F)c3)c(F)c2)c(=O)n(-c2ccc(F)cc2)c1=O [Example 12] |
| 2.9 nM | 14 nM | CC(C)n1cc(C(=O)Nc2ccc(Oc3ccnc(Nc4ccc(C#N)cn4)c3)c(F)c2)c(=O)n(-c2ccc(F)cc2)c1=O [Example 1, N-[4-({2-[(5-cyanopyridin-2-yl)amino]pyridin-4-yl}oxy)-3-fluorophenyl]-3-(4-fluorophenyl)-2,4-dioxo-1-(propan-2-yl)-1,2,3,4-tetrahydropyrimidine-5-carboxamide] |
| 3.3 nM | 5.6 nM | CC(C)n1cc(C(=O)Nc2ccc(Oc3ccnc(Nc4ccc(N5CCCC5=O)cn4)c3)c(F)c2)c(=O)n(-c2ccc(F)cc2)c1=O [Example 88, N-{3-fluoro-4-[(2-{[5-(2-oxopyrrolidin-1-yl)pyridin-2-yl]amino}pyridin-4-yl)oxy]phenyl}-3-(4-fluorophenyl)-2,4-dioxo-1-(propan-2-yl)-1,2,3,4-tetrahydropyrimidine-5-carboxamide] |
| 38 nM | 72 nM | CC(C)n1cc(C(=O)Nc2ccc(Oc3ccnc(Nc4ccc(N5CCN(C(C)(C)C)C5=O)cn4)c3)c(F)c2)c(=O)n(-c2ccc(F)cc2)c1=O [Example 91] |
| 5.6 nM | 12 nM | CC(C)n1cc(C(=O)Nc2ccc(Oc3ccnc(Nc4ccc(-n5ccnc5)cn4)c3)c(F)c2)c(=O)n(-c2ccc(F)cc2)c1=O [Example 24] |
| – | 17 nM | C[C@H](CO)n1cc(C(=O)Nc2ccc(Oc3ccnc(Nc4ccc(S(=O)(=O)N(C)C)cn4)c3)c(F)c2)c(=O)n(-c2ccc(F)cc2)c1=O [Example 56] |
| – | 6.7 nM | C[C@H](CO)n1cc(C(=O)Nc2ccc(Oc3ccnc(Nc4ccc(S(=O)(=O)N(C)C)cn4)c3)c(F)c2)c(=O)n(-c2ccc(F)cc2)c1=O [Example 55] |

| Compound | IC50 (HIS-AXL 473-End) | IC50 (GST-MERTK 578-872) |
| --- | --- | --- |
| CC(C)n1cc(C(=O)Nc2ccc(Oc3ccnc(Nc4ccnc(N5CCCC5)n4)c3)c(F)c2)c(=O)n(CC2CC2)c1=O [Example 110] | – | 1.6 nM |
| CC(C)n1cc(C(=O)Nc2ccc(Oc3ccnc(Nc4ccnc(N5CCC(S(C)(=O)=O)CC5)n4)c3)c(F)c2)c(=O)n(C23CC(C2)C3)c1=O [Example 113] | 4.8 nM | 2.8 nM |
| CC(=O)c1cccc(-n2c(=O)c(C(=O)Nc3ccc(Oc4ccnc(Nc5ccc(S(=O)(=O)N(C)C)cn5)c4)c(F)c3)cn(C(C)C)c2=O)c1 [Example 73] | 59 nM | 24 nM |
| COC(=O)N1CCN(c2nc(Nc3cc(Oc4ccc(NC(=O)c5cn(C(C)C)c(=O)n(Cc6ccccc6)c5=O)cc4F)ccn3)ccc2C#N)CC1 [Example 130] | – | 7.1 nM |
| CC(C)n1cc(C(=O)Nc2ccc(Oc3ccnc(Nc4ccc(S(=O)(=O)NC5CC5)cn4)c3)c(F)c2)c(=O)n(-c2ccc(F)cc2)c1=O [Example 79] | 70 nM | 13 nM |
| CC(C)n1cc(C(=O)Nc2ccc(Oc3ccnc(Nc4ccc(S(=O)(=O)N(C)C)cn4)c3)c(F)c2)c(=O)n(Cc2ccccc2)c1=O [Example 49] | 110 nM | 3310 nM |
| CC(C)n1cc(C(=O)Nc2ccc(Oc3ccnc(Nc4ccnc(N5CCCC5)n4)c3)c(F)c2)c(=O)n(C(C)C)c1=O [Example 108] | 3.8 nM | 9.1 nM |
| Cc1ccc(Nc2cc(Oc3ccc(NC(=O)c4cn(C(C)C)c(=O)n(-c5ccc(F)cc5)c4=O)cc3F)ccn2)nc1Cl [Example 7] | 21 nM | 82 nM |
| CC(C)n1cc(C(=O)Nc2ccc(Oc3ccnc(Nc4ccc(C#N)c(N5CCC(O)(C(F)(F)F)CC5)n4)c3)c(F)c2)c(=O)n(Cc2ccccc2)c1=O [Example 132] | – | 12 nM |
| CC(C)NC(=O)c1ccc(Nc2cc(Oc3ccc(NC(=O)c4cn(C(C)C)c(=O)n(-c5ccc(F)cc5)c4=O)cc3F)ccn2)nc1 [Example 94] | – | 3.5 nM |
| CC(C)n1cc(C(=O)Nc2ccc(Oc3ccnc(Nc4ccnc(N5CCCC5)n4)c3)c(F)c2)c(=O)n(CC2CCCCC2)c1=O [Example 111] | – | 14 nM |
